From ChEMBL document CHEMBL1130616, “Synthesis and biological activity of glutamic acid derivatives” (Bioorg Med Chem Lett, 1998) come the findings set out here.

As a reminder, the EC50 is the concentration needed to bring the measured effect to its halfway point. What is called Emax is the maximal effect, on the per cent scale that the assay sets.

What all share (format): functional
The species entered for test [1] is Rattus norvegicus. As to the kind of experiment: Effective concentration by measuring IP2 accumulation using rat fore brain synaptoneurosomes.
Test [2] is filed under the species Rattus norvegicus. As to the kind of experiment: Emax by measuring IP2 accumulation using rat fore brain synaptoneurosomes.
The species entered for test [3] is Rattus norvegicus. In words: Emax by measuring IP1 accumulation using rat fore brain synaptoneurosomes.
The species named for test [4] is Rattus norvegicus. In words: Effective concentration by measuring IP1 accumulation using rat fore brain synaptoneurosomes.

Turning to `N[C@@H](CC(C=O)CCCCN1C(=O)c2ccccc2C1=O)C(=O)O.N[C@@H](Cn1oc(=O)[nH]c1=O)C(=O)O` (some centres undefined), the EC50 was determined as 0.27 µM in test [1] and 0.14 µM in test [4]. The results for the Emax in test [2] and in test [3] were 359% and 216%, respectively.

With `C[C@@](N)(C(=O)O)c1ccc(C(=O)O)cc1.N[C@@]1(C(=O)O)CC[C@@H](C(=O)O)C1`, the EC50 in test [1] was determined as 224 µM; in test [4], 109 µM. For the same compound, the Emax in test [2] turned out to be 643%; in test [3] it was 269%.

Consider `N[C@@]1(C(=O)O)CC[C@@H](C(=O)O)C1`, for which the half-maximal effective concentration (EC50) in test [1] is 38 µM; in test [4], 17 µM. The Emax in test [2] amounted to 700%; in test [3] it was 284%.

For `N[C@@H](CC(C=O)CCCCN1C(=O)c2ccccc2C1=O)C(=O)O.N[C@@]1(C(=O)O)CC[C@@H](C(=O)O)C1` (some centres undefined), the values for the EC50 in test [1] and in test [4] were 79 µM and 37 µM, respectively. The Emax in test [2] amounted to 543%; in test [3], 264%.

Regarding `C[C@@](N)(C(=O)O)c1ccc(C(=O)O)cc1.N[C@@H](Cn1oc(=O)[nH]c1=O)C(=O)O`, the EC50 in test [1] came out at 1.34 µM; in test [4], 0.63 µM. The Emax in test [2] stood at 358%; in test [3], 225%.

For `N[C@@H](Cn1oc(=O)[nH]c1=O)C(=O)O` [QUISQUALATE], the 50% effective concentration (EC50) was determined as 0.32 µM in test [1] and 0.1 µM in test [4]. Besides, the figures for the Emax in test [2] and in test [3] were 524% and 240%, respectively.
